This passage reports IC50 and melting point results from patent US6770650B2, “Cyclic amine derivatives-CCR-3 receptor antagonists” (Syntex (U.S.A.) LLC, priority 1997, dated 2004).

In data set [1] the test system is CCR-3 L1.2 transfectant cells. As to the kind of experiment: Inhibition of eotaxin mediated chemotaxis of CCR-3 L1.2 transfectant cells. The data set is classed as cell-based. Conditions: concentration required to reduce eotaxin mediated chemotaxis of CCR-3 L1.2 transfected cells by 50%. The procedure: The CCR-3 antagonistic activity of the compounds of this invention was determined by measuring the inhibition of eotaxin mediated chemotaxis of the CCR-3 L1.2 transfectant cells, using a slight modification of the method described in Ponath, P. D. et al., J. Clin. Invest. 97: 604-612 (1996). The assay was performed in a 24-well chemotaxis plate (Costar Corp., Cambridge Mass.) CCR-3 L1.2 transfectant cells were grown in culture medium containing RPMI 1640, 10% Hyclone™ fetal calf serum, […] 2-mercaptoethanol and Geneticin 418 (0.8 mg/ml). 18-24 hours before the assay, the transfected cells were treated with n-butyric acid at a final concentration of 5 mM/1×10^6 cells/ml, isolated and resuspended at 1×10^7 cells/ml in assay medium containing equal parts of RPMI 1640 and Medium 199 (M 199) with 0.5% bovine serum albumin.
Human eotaxin suspended in phosphate buffered saline at 1 mg/ml was added to bottom chamber in a final concentration of 100 nm. Transwell culture inserts (Costar Corp., Cambridge Mass.) having 3 micron pore size were inserted into each well and L1.2 cells (1×10^6) were added to the top chamber in a final volume of 100 μl. Test compounds in DMSO were added both to the top and bottom chambers such that the final DMSO volume was 0.5%. The assay was performed against two sets of controls. The positive control contained cells with no test compound in the top chamber and only eotaxin in the lower chamber. The negative control contained cells with no test compound in the top chamber and neither eotaxin nor test compound in lower chamber. The plate was incubated at 37° C. After 4 h, the inserts were removed from the chambers and the cells that had migrated to the bottom chamber were counted by pipetting out 500 μl of the cell suspension from the lower chamber to 1.2 ml Cluster tubes (Costar) and counting them on a FACS for 30 sec.
The IC50 value (concentration of test compound required to reduce eotaxin mediated chemotaxis of CCR-3 L1.2 transfected cells by 50%) for some of the compounds of the invention was: […]

The target in a further data set is T1, CCR-3 receptor (Homo sapiens, UniProt P51677).
T1 construct: expressed in transfected cells; host or cells: L1.2 cells (murine pre-B lymphoma line)
T1 sequence (P51677 1-355): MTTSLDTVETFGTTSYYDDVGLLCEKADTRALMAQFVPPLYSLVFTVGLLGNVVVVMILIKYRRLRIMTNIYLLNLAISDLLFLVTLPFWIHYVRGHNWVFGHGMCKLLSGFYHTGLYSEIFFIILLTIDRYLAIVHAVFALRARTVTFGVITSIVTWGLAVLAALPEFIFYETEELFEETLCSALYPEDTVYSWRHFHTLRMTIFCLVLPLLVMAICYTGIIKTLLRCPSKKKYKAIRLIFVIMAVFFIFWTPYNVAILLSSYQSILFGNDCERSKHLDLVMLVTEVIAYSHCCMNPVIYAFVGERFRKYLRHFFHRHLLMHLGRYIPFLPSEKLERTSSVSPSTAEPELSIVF
The experiment in a line: CCR-3 Receptor Binding Assay, inhibition of 125I eotaxin binding to CCR-3 L1.2 transfectant cells. Conditions: concentration required to reduce 125I-eotaxin binding to the CCR-3 L1.2 transfected cells by 50%. Here is the method: The CCR-3 antagonistic activity of the compounds of the invention was determined by their ability to inhibit the binding of ^125I eotaxin to CCR-3 L1.2 transfectant cells ((see Ponath, P. D. et al., J. Exp. Med., Vol. 183, 2437-2448, (1996)).
The assay was performed in Costar 96-well polypropylene round bottom plates. Test compounds were dissolved in DMSO and then diluted with binding buffer (50 mM HEPES, 1 mM CaCl2, 5 mM MgCl2, 0.5% bovine serum albumin (BSA), 0.02% sodium azide, pH 7.24) such that the final DMSO concentration was 2%. 25 μl of the test solution or only buffer with DMSO (control samples) was added to each well, followed by the addition of 25 μl of ^125I-eotaxin ([…]) (NEX314, New England Nuclear, Boston, Mass.) and 1.5×10^5 of the CCR-3 L1.2 transfected cells in 25 μl binding buffer. The final reaction volume was 75 μl.
After incubating the reaction mixture for 1 h at room temperature, the reaction was terminated by filtering the reaction mixture through polyethylenimine treated Packard Unifilter GF/C filter plate (Packard, Chicago, Ill.). The filters were washed four times with ice cold wash buffer containing 10 mm HEPES and 0.5M sodium chloride (pH 7.2) and dried at 65° C. for approximately 10 min. 25 μl/well of Microscint-20™ scintillation fluid (Packard) was added and the radioactivity retained on the filters was determined by using the Packard TopCount™.
The IC50 value (concentration of test compound required to reduce ^125I-eotaxin binding to the CCR-3 L1.2 transfected cells by 50%) for some of the compounds of the invention was: […]

The IC50 is the concentration needed to halve the response being measured. A low value points to greater potency. As for `COc1cccc(NC(=O)NC2CCCCC2N2CCN(Cc3ccc(Cl)c(Cl)c3)CC2)c1` (racemic) [compound 84, 1-{2(RS)-[4-(3,4-Dichlorobenzyl)piperazin-1-yl]cyclohexyl}-3-(3-methoxyphenyl)urea], the IC50 in data set [1] stood at 460 nM; on CCR-3 receptor, 690 nM.
In turn, `Cc1ccc(C(=O)N[C@H](CN2CCC(Cc3ccc(Cl)c(Cl)c3)CC2)C(C)C)cc1` [compound 57, N-{1-(S)-[4-(3,4-Dichlorobenzyl)piperidin-1-ylmethyl]-2-methylpropyl}-4-methylbenzamide] had an IC50 in data set [1] of 240 nM. In other words, the sub-micromolar range.
The term melting point denotes the temperature, or range, at which the solid turns liquid. On to `Cc1cc(C)c(NC(=O)N[C@@H](CN2CCN(Cc3ccc(Cl)c(Cl)c3)CC2)C(C)C)c(C)c1` [compound 93], for which the melting point lay within 271.1 to 275.5 °C. Moreover, in data set [1], the IC50 amounted to 60 nM. Also, the IC50 at CCR-3 receptor worked out at 3370 nM.
In the case of `COc1cc(N)c(Cl)cc1C(=O)NCC1CCN(CC(NC(=O)c2ccc(C)cc2)C(C)C)CC1` (racemic) [compound 59, N-{1-(RS)-[4-(4-Amino-5-chloro-2-methoxyphenylcarbonylaminomethyl)piperidin-1-yl-methyl]-2-methylpropyl}-4-methylbenzamide], the values for the IC50 (in data set [1]; on CCR-3 receptor) were 210 nM and 950 nM, respectively.
